Test results reported in PubChem BioAssay AID1845209 (Molecular Pharmacology Branch, DTP, NCI, 2023).

System: NCI-H211 tumor spheroids, viability percent test/control
Test: Anticancer human tumor NCI-H211 cell line growth inhibition;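 further: spheroids exposed to agents for seven days before readout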
Conditions: spheroids with HUVEC and MSC; for IC50: curve of first compound; for viability, T/C: stronger effect = lower value
Outline: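 Complex tumor spheroids combined malignant cells with endothelial cells and mesenchymal stem cells. DNA-damaging drugs and DNA repair inhibitors were tested alone and in combination, at half-log dilutions down from clinical Cmax (top 10 microM if Cmax unknown), 0.25% DMSO final.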

O=C(c1cc(Cc2n[nH]c(=O)c3ccccc23)ccc1F)N1CCN(C(=O)C2CC2)CC1 + Cn1nnc2c(C(N)=O)ncn2c1=O
IC50 (second compound 1 µM): < 94.9 nM
IC50 (second compound 3.16 µM): < 94.9 nM
IC50 (second compound 10 µM): < 94.9 nM
IC50 (second compound 31.6 µM): < 94.9 nM
IC50 (second compound 100 µM): < 94.9 nM
viability, T/C (second compound 1 µM, first compound 0.0949 µM): 38.8%
viability, T/C (second compound 1 µM, first compound 0.3 µM): 24.3%
viability, T/C (second compound 1 µM, first compound 0.949 µM): 9.48%
viability, T/C (second compound 1 µM, first compound 3 µM): 11.2%
viability, T/C (second compound 1 µM, first compound 9.49 µM): 7.85%
viability, T/C (second compound 1 µM, first compound 30 µM): 6.43%
viability, T/C (second compound 3.16 µM, first compound 0.0949 µM): 39.2%
viability, T/C (second compound 3.16 µM, first compound 0.3 µM): 16.4%
viability, T/C (second compound 3.16 µM, first compound 0.949 µM): 12.2%
viability, T/C (second compound 3.16 µM, first compound 3 µM): 8.6%
viability, T/C (second compound 3.16 µM, first compound 9.49 µM): 8.67%
viability, T/C (second compound 3.16 µM, first compound 30 µM): 6.42%
viability, T/C (second compound 10 µM, first compound 0.0949 µM): 20.4%
viability, T/C (second compound 10 µM, first compound 0.3 µM): 13.6%
viability, T/C (second compound 10 µM, first compound 0.949 µM): 8.65%
viability, T/C (second compound 10 µM, first compound 3 µM): 8.76%
viability, T/C (second compound 10 µM, first compound 9.49 µM): 8.42%
viability, T/C (second compound 10 µM, first compound 30 µM): 5.87%
viability, T/C (second compound 31.6 µM, first compound 0.0949 µM): 9.76%
viability, T/C (second compound 31.6 µM, first compound 0.3 µM): 10.7%
viability, T/C (second compound 31.6 µM, first compound 0.949 µM): 8.79%
viability, T/C (second compound 31.6 µM, first compound 3 µM): 8.73%
viability, T/C (second compound 31.6 µM, first compound 9.49 µM): 8.23%
viability, T/C (second compound 31.6 µM, first compound 30 µM): 6.62%
viability, T/C (second compound 100 µM, first compound 0.0949 µM): 10.7%
viability, T/C (second compound 100 µM, first compound 0.3 µM): 9.41%
viability, T/C (second compound 100 µM, first compound 0.949 µM): 10.1%
viability, T/C (second compound 100 µM, first compound 3 µM): 9.99%
viability, T/C (second compound 100 µM, first compound 9.49 µM): 8.37%
viability, T/C (second compound 100 µM, first compound 30 µM): 6.94%

O=C(c1cc(Cc2n[nH]c(=O)c3ccccc23)ccc1F)N1CCN(C(=O)C2CC2)CC1 + CC[C@@]1(O)C(=O)OCc2c1cc1n(c2=O)Cc2cc3c(CN(C)C)c(O)ccc3nc2-1
IC50 (second compound 0.003 µM): < 94.9 nM
IC50 (second compound 0.00949 µM): < 94.9 nM
IC50 (second compound 0.03 µM): < 94.9 nM
IC50 (second compound 0.0949 µM): < 94.9 nM
IC50 (second compound 0.3 µM): < 94.9 nM
viability, T/C (second compound 0.003 µM, first compound 0.0949 µM): 9.62%
viability, T/C (second compound 0.003 µM, first compound 0.3 µM): 3.33%
viability, T/C (second compound 0.003 µM, first compound 0.949 µM): 1.25%
viability, T/C (second compound 0.003 µM, first compound 3 µM): 1.06%
viability, T/C (second compound 0.003 µM, first compound 9.49 µM): 0.76%
viability, T/C (second compound 0.003 µM, first compound 30 µM): 0.99%
viability, T/C (second compound 0.00949 µM, first compound 0.0949 µM): 1.09%
viability, T/C (second compound 0.00949 µM, first compound 0.3 µM): 1.14%
viability, T/C (second compound 0.00949 µM, first compound 0.949 µM): 1.15%
viability, T/C (second compound 0.00949 µM, first compound 3 µM): 1.2%
viability, T/C (second compound 0.00949 µM, first compound 9.49 µM): 1.06%
viability, T/C (second compound 0.00949 µM, first compound 30 µM): 0.96%
viability, T/C (second compound 0.03 µM, first compound 0.0949 µM): 1.07%
viability, T/C (second compound 0.03 µM, first compound 0.3 µM): 1.19%
viability, T/C (second compound 0.03 µM, first compound 0.949 µM): 1.2%
viability, T/C (second compound 0.03 µM, first compound 3 µM): 1.12%
viability, T/C (second compound 0.03 µM, first compound 9.49 µM): 0.99%
viability, T/C (second compound 0.03 µM, first compound 30 µM): 0.78%
viability, T/C (second compound 0.0949 µM, first compound 0.0949 µM): 1.07%
viability, T/C (second compound 0.0949 µM, first compound 0.3 µM): 1.03%
viability, T/C (second compound 0.0949 µM, first compound 0.949 µM): 1.31%
viability, T/C (second compound 0.0949 µM, first compound 3 µM): 1.37%
viability, T/C (second compound 0.0949 µM, first compound 9.49 µM): 0.98%
viability, T/C (second compound 0.0949 µM, first compound 30 µM): 1.09%
viability, T/C (second compound 0.3 µM, first compound 0.0949 µM): 1.03%
viability, T/C (second compound 0.3 µM, first compound 0.3 µM): 1.25%
viability, T/C (second compound 0.3 µM, first compound 0.949 µM): 1%
viability, T/C (second compound 0.3 µM, first compound 3 µM): 1.05%
viability, T/C (second compound 0.3 µM, first compound 9.49 µM): 1%
viability, T/C (second compound 0.3 µM, first compound 30 µM): 0.91%
